# From patent publication US4556677A, “Alkane and alkene derivatives and their use” (Farmos Group Ltd., priority 1981, dated 1985)
# Structures can show the parent of a compound that is named as a salt. Where two headings read alike, the source gives them in different places.
# How the values were obtained:
# estrogen receptors = biological target: T1, estrogen receptors (Rattus norvegicus, UniProt P06211); test: affinity to estrogen receptors, competition with 3H-labelled 17-β-estradiol (dextran-charcoal method); assay type: binding; conditions: rat uterus cytosol, Table 1; read-out: Affinity (concentration of compound where 50% competition (inhibition) with 3H-estradiol occurred)
# T1 construct: rat uterus cytosol preparation; from tissue; host or cells: rat uterus cytosol
# T1 sequence (P06211 1-600): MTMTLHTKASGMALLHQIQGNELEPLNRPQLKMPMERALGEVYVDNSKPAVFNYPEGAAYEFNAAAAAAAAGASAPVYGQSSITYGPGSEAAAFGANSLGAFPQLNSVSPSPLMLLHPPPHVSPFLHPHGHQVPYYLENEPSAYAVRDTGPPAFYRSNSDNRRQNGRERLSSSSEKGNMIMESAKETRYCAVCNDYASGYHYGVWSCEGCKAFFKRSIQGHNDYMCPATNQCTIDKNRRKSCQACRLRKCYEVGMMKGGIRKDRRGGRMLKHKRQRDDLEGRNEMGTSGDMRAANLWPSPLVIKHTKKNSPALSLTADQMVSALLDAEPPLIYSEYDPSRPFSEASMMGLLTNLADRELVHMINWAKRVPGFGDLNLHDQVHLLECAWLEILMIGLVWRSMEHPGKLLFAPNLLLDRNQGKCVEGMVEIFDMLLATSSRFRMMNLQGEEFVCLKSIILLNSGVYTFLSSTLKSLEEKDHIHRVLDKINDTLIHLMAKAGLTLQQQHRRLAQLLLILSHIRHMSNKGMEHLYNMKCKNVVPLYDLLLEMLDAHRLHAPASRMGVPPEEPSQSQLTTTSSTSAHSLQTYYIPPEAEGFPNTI
# Procedure: The affinity to estrogen receptors was determined by the ability of the molecules to compete with ^3 H-labelled 17-β-estradiol in rat uterus cytosol preparation. After incubation, receptor-bound and receptor-unbound ligands were separated by a known dextrancharcoal method. (Korenman, S. G.: "Comparative binding affinity of estrogens and its relation to estrogenic potency". Steroids 13: 163-177, 1969). […] The results in table 1 are shown as follows: | with ^3 H--estradiol occurred
# immature mouse uterus [1] = test: estrogenic effect in vivo, immature mouse uterus weight; conditions: for oestrogenic effect, % less than that of oestradiol 0.05 mg/kg: 0.5 mg/kg, s.c., immature mice; for estrogenic effect (in words): immature mouse uterus weight
# Procedure: (§1) The estrogen-antiestrogen (progesterone-antiprogesterone) effect in vivo was determined as follows:
# The estrogenic properties of the molecules were determined by administering the molecules, suspended in sesam oil, subcutaneously to 21 days old immature mice on three consecutive days. The mice were killed on the fourth day and the uterus was weighed. Estradiol (positive control) increases the weight of the uterus. The weight correlates with the estrogenic effect of the molecules.
# The estrogenic effect of compounds of the invention as measured by their ability to increase the weight of immature mouse uterus was usually far less than that of oestradiol, the positive control. […] At the dose of 0.5 mg/kg the oestrogenic effect of compound 1, 7 and 8 were respectively 20%, 75% and 83% less and at the dose of 5 mg/kg the oestrogenic effect of compound 2 was 60% less than that of oestradiol 0.05 mg/kg.
# (§2) In Table 2 a summary of the oestrogenic/antioestrogenic and progestanic/antiprogestanic effect of some of the compounds can be seen. The percentages refer to increase/reduction in mice uterus weights.
# immature mouse uterus [2] = test: antiestrogenic effect in vivo, inhibition of oestradiol induced uterus weight increase in immature mice; conditions: for antiestrogenic effect (in words): immature mice
# Procedure: as §1
# The antiestrogenic effects of the molecules were determined in a similar manner in immature mice. In this case, the ability of the molecules to inhibit estrogen-induced uterus weight increase was investigated, too.
# The compound 1 at a dose of 0.5 mg/kg caused a 50% inhibition of oestradiol induced effect on mouse uterus.
# as §2
# [3] = system: MCF-7 human mammary adenocarcinoma cell line; test: anti-tumour effect in vitro, growth of MCF-7 cells (bioluminescence ATP assay); assay type: cell-based; conditions: MCF-7, Table 3, read-out: Antitumour effect (IC50 = concentration of compound where 50% inhibition of cell growth could be seen)
# Procedure: The anti-tumour effect was studied in vitro as follows:
# The growth of MCF-7 cell line (human mammary adenocarcinoma, known to be estrogen-dependent) was evaluated in the presence or absence of estradiol, medroxyprogesterone acetate or the molecules to be investigated. Combinations of molecule plus estradiol and molecule plus medroxyprogesterone were also studied. The amount of living cells after 4 h, 24 h and 48 h incubations were determined by bioluminescence assay (intracellular ATP determination).
# The antitumour effects of the compounds had been tested in vitro against MCF-7 human mammary adenocarcinoma cell line and in vivo against DMBA-induced rat mammary adenocarcinomas and transplantable mammary adenocarcinoma.
# In table 3 the antitumour effects of certain compounds can be seen.
# [4] = system: DMBA-induced rat mammary adenocarcinomas; test: antitumour effect in vivo against DMBA-induced rat mammary adenocarcinomas; conditions: 10 mg/kg
# Procedure: (§3) The anti-tumour effect was investigated in vivo against DMBA-induced rat mammary adenocarcinomas and transplantable mammary adenocarcinoma according to the following methods:
# Mammary adenocarcinomas were induced by DMBA in 35-40 days old female rats. Treatment with the molecules to be investigated was started after palpable tumours had appeared. Tumour size and numbers of tumours were evaluated twice a week. Tumour sizes in the control group, treated with solvent, were compared with the test groups.
# The antitumour effect in vivo against DMBA-induced mammary carcinomas was investigated as described earlier. […] Compound 2 at the dose of 7.5 mg/kg caused a 63% decrease in the size of tumours compared to the control.
# [5] = system: transplantable rat mammary adenocarcinoma; test: effect on transplantable rat mammary adenocarcinoma; assay type: in vivo
# From the text: as §3
# Transplantable rat mammary adenocarcinoma was developed by inoculating pieces of DMBA-induced carcinomas subcutaneously to healthy mature female rats. A tumor which expressed malignant growth was selected for further transplantations.
# The effects of compounds mentioned earlier against transplantable rat mammary adenocarcinoma can be seen in table 4.
# The figures in table 4 refer to relative sizes compared to controls which is 100.
# mouse uterus [6] = test: progestanic effect in vivo, reduction of mouse uterus weight
# Procedure: as §1
# (§4) The (anti)progestanic effects were studied in a similar manners as the estrogenic ones. Medroxyprogesterone acetate, which decreases uterus weight, was used as reference.
# (§5) The progestanic and antiprogestanic effects of compounds were measured as described earlier. The compound No. 2 reduced the weight of mouse uterus by 49% compared to control while medroxyprogesterone acetate gave 40% reduction.
# as §2
# mouse uterus [7] = test: antiprogestanic/synergistic effect in vivo, given together with medroxyprogesterone acetate, mouse uterus weight
# Procedure: as §1, §4, §5, §2
# [8] = together with medroxyprogesterone acetate
# [9] = Table 2, 0.5 mg/kg, given alone
# [10] = Table 2, 0.5 mg/kg, with medroxyprogesterone acetate 0.06 mg/kg
smiles,measurement,setting,value
"CC/C(=C(/c1ccccc1)c1ccc(O)cc1)C1CCCC1 [Compound 1, (E)--2-cyclopentyl-1-(p-hydroxyphenyl)-1-phenyl-1-butene]",IC50,estrogen receptors,100 to 1000 nM
same,"oestrogenic effect, % less than that of oestradiol 0.05 mg/kg",immature mouse uterus [1],20%
same,estrogenic effect (in words),immature mouse uterus [1],dose dependent
same,inhibition of oestradiol induced effect on mouse uterus,immature mouse uterus [2]; 0.5 mg/kg,50%
same,IC50,"[3]; Homo sapiens, MCF7",1 to 5 µM
same,decrease in size of tumours compared to the control,[4],75%
same,growth of the tumours (in words),[4],the growth of the tumours was slowed
same,number of the tumours (in words),[4],the number of the tumours was decreasing
same,relative tumour size compared to controls which is 100,[5]; 1.0 mg/kg,80
same,relative tumour size compared to controls which is 100,[5]; 5.0 mg/kg,77
same,relative tumour size compared to controls which is 100,[5]; 10.0 mg/kg,58
same,relative tumour size compared to controls which is 100,[5]; 20.0 mg/kg,64
same,relative tumour size compared to controls which is 100,[5]; 40.0 mg/kg,40
"CC/C(=C(\c1ccccc1)c1ccc(O)cc1)C1CCCC1 [Compound 3, (Z)-2-cyclopentyl-1-(p-hydroxyphenyl)-1-phenyl-1-butene]",IC50,estrogen receptors,100 to 10000 nM
same,IC50,"[3]; Homo sapiens, MCF7",1 to 5 µM
"CCC(C1CCCC1)C(c1ccccc1)c1ccc(O)cc1 (stereo not shown) [Compound 4, 2-cyclopentyl-1-(p-hydroxyphenyl)-1-phenylbutane]",IC50,estrogen receptors,100 to 1000 nM
same,IC50,"[3]; Homo sapiens, MCF7",1 to 5 µM
"CCC(C1CCCC1)C(c1ccccc1)c1ccc(O)cc1 (stereo not shown) [Compound 5, 2-cyclopentyl-1-(p-hydroxyphenyl)-1-phenylbutane]",estrogenic effect (in words),immature mouse uterus [1],did not possess any estrogenic effects of their own
same,antiestrogenic effect (in words),immature mouse uterus [2],not antiestrogenic
same,progestanic effect (in words),mouse uterus [6]; given alone,did not possess progestanic effects
same,antiprogestanic / synergistic effect with medroxyprogesterone acetate (in words),mouse uterus [7]; [8],slight inhibition of medroxyprogesterone acetate produced effect
same,IC50,[3],1 to 5 µM
"CCC(C1CCCC1)C(c1ccccc1)c1ccc(O)cc1 (stereo not shown) [Compound 6, 2-cyclopentyl-1-(p-hydroxyphenyl)-1-phenylbutane]",estrogenic effect (in words),immature mouse uterus [1],did not possess any estrogenic effects of their own
same,antiestrogenic effect (in words),immature mouse uterus [2],not antiestrogenic
same,progestanic effect (in words),mouse uterus [6]; given alone,did not possess progestanic effects
same,antiprogestanic / synergistic effect with medroxyprogesterone acetate (in words),mouse uterus [7]; [8],slight inhibition of medroxyprogesterone acetate produced effect
same,IC50,[3],1 to 5 µM
"CCC(=C(c1ccc(O)cc1)c1ccc(OCCN(C)C)cc1)C1CCCC1 [Compound 7, 2-cyclopentyl-1-[p-(N,N-dimethyl-2-aminoethoxy)phenyl]-1-(p-hydroxyphenyl)-1-butene]",IC50,estrogen receptors,100 to 1000 nM
same,"oestrogenic effect, % less than that of oestradiol 0.05 mg/kg",immature mouse uterus [1],75%
same,Given alone: oestrogenic effect (in words),immature mouse uterus [1]; [9],oestrogenic
same,estrogenic effect (in words),immature mouse uterus [1],dose dependent
same,inhibition of oestradiol induced effect on mouse uterus,immature mouse uterus [2]; 5 mg/kg,48%
same,Given with oestradiol: reduction in mice uterus weight,"immature mouse uterus [2]; Table 2, 5 mg/kg, with oestradiol 0.05 mg/kg",48%
same,progestanic effect (in words),mouse uterus [6]; given alone,did not posses any progestanic effects of its own
same,antiprogestanic / synergistic effect with medroxyprogesterone acetate (in words),mouse uterus [7]; [8],clear dose dependant antiprogestanic effect
same,IC50,"[3]; Homo sapiens, MCF7",1 to 5 µM
"CCC(c1ccc(O)cc1)C(CC)C1CCCC1 (stereo not shown) [Compound 9, 3-cyclopentyl-4-(p-hydroxyphenyl)-hexane]",IC50,estrogen receptors,100 to 1000 nM
same,IC50,"[3]; Homo sapiens, MCF7",1 to 10 µM
"CC/C(=C(\c1ccccc1)c1ccc(OCCNC)cc1)C1CCCC1 [Compound 10, (Z)--2-cyclopentyl-1-[p-(N--methyl-2-aminoethoxy)-phenyl]-1-phenyl-1-butene, hydrochloride]",IC50,estrogen receptors,10000 to 100000 nM
same,IC50,"[3]; Homo sapiens, MCF7",5 to 10 µM
"CCC(=C(c1ccc(OC)cc1)c1ccc(OCCN(C)C)cc1)C1CCCC1 [Compound 11, 2-cyclopentyl-1-[p-(N,N-dimethyl-2-aminoethoxy)phenyl]-1-(p-methoxyphenyl)-1-butene]",IC50,estrogen receptors,10000 to 100000 nM
same,Given alone: progestanic effect (in words),mouse uterus [6]; [9],progestanic
same,Given alone: reduction in mice uterus weight,mouse uterus [6]; [9],20%
same,progestanic effect (in words),mouse uterus [6]; given alone,purely due to its progestanic effect
same,reduction of mouse uterus weight,"mouse uterus [6]; given alone, 0.5 mg/kg",20%
same,Given with medroxyprogesterone acetate: effect (in words),mouse uterus [7]; [10],synergistic
same,Given with medroxyprogesterone acetate: reduction in mice uterus weight,mouse uterus [7]; [10],67%
same,reduction of mouse uterus weight together with medroxyprogesterone acetate,"mouse uterus [7]; together with medroxyprogesterone acetate, vs 40% for the acetate alone",67%
same,IC50,"[3]; Homo sapiens, MCF7",1 to 10 µM
same,relative tumour size compared to controls which is 100,[5]; 1.0 mg/kg,87
same,relative tumour size compared to controls which is 100,[5]; 5.0 mg/kg,87
same,relative tumour size compared to controls which is 100,[5]; 10.0 mg/kg,50
"CCC(CO)C(CC)c1ccc(O)cc1 (stereo not shown) [Compound 12, 2-ethyl-3-(p-hydroxyphenyl)-1-pentanol]",IC50,estrogen receptors,10000 to 100000 nM
"CC(=O)O[C@]1(C(C)=O)CC[C@H]2[C@@H]3C[C@H](C)C4=CC(=O)CC[C@]4(C)[C@H]3CC[C@@]21C [medroxyprogesterone acetate, Medroxyprogesterone acetate, reference compound]",decrease of mouse uterus weight by medroxyprogesterone acetate alone,mouse uterus [6]; reference compared with compound 8,20%
same,reduction of mouse uterus weight by medroxyprogesterone acetate alone,mouse uterus [6]; reference compared with compounds 2 and 11,40%
